US9795570B2, “Modulation of macrophage phenotype by emodin” (University of South Carolina, priority 2016, dated 2017)

Legend:
Format in all cases: cell-based, mouse
[1] = test system: NFκB p65, STAT1, IRF5, STAT6, IRF4; experiment: Nuclear translocation of transcription factors (western blotting of nuclear fractions); conditions: emodin 50 μM 24 h
Description: (§1) Following stimulation with IL4 or LPS+IFNγ with or without emodin for varying periods, macrophages were lysed with cell signaling lysis buffer (Millipore) for whole cell lysates. Cytoplasmic and nuclear extracts were prepared using the Epiquik Nuclear Extraction kit (Epigentek, Farmingdale, N.Y.). Total protein was separated on 4-20% Tris-glycine pre-cast gels (Pierce) and transferred onto Nitrocellulose membranes (Bio-Rad Life Science, Hercules, Calif.). The membranes were then probed with HRP conjugated secondary antibodies, and signals were detected using Pierce ECL Western Blotting Substrate (Pierce).

[2] = test system: IRF4; experiment: IRF4 protein by western blotting; conditions: IL4, emodin 0-50 μM, 6 h
Description: as §1

[3] = test system: 4T1 cells; experiment: Tumor cell gene expression (qPCR); conditions: 24 h post-treatment
Description: (§2) For qPCR, cells were lysed with Qiazol, and RNA was extracted using Zymo research Direct-zol RNA isolation kit. cDNA was then made from 1 μg of RNA using iScript cDNA Synthesis Kit (Bio-Rad Life Science, Hercules, Calif.). Run conditions were 95° C. for 10 s, 58° C. for 15 s, 70° C. for 15 s. Samples were run in duplicate on a Bio-rad CFX Real Time thermocycler.

[4] = test system: EO771 cells; experiment: Tumor cell gene expression (qPCR); conditions: 24 h post-treatment
Description: as §2

[5] = test system: 4T1 cells; experiment: Cell viability, LDH assay; conditions: emodin 0-100 μM, 24-48 h
Description: (§3) Tumor cells (2×10^4 EO771 or 4T1 cells) were seeded into 96 well culture plates in DMEM with 10% FBS. The cells were incubated overnight at 37° C. The medium was then removed, and the cells were washed with phosphate-buffered saline (PBS). DMEM containing varying concentrations of emodin (0-100 μM) was then added to the cells in quadruplicate. Vehicle control contained an equal volume of DMSO. Plates of cells were then incubated for 24-48 h. After an indicated period, the viability of the cells was determined using a Lactate Dehydrogenase (LDH) Cytotoxicity Detection Kit (Clontech Mountain View, Calif.) according to the manufacturer's instructions. Briefly, the supernatant was removed from each well on the plate and placed in a new well on the same plate. An equal volume of cell lysis buffer (2% triton in DMEM) was then added to each well containing the cancer cells, and the cells were incubated at room temperature for 15 min. The reaction mixture was then added to each well (cell lysate plus supernatant) and incubated for 5 min before the stop solution was added. The absorbance was measured at 490 nm on a Spectra Max M5 Microplate Reader (Molecular Devices, Sunnyvale, Calif.). The percent viability was then calculated as the ratio of LDH in the cell lysate to the total amount of LDH in the lysate plus the supernatant. The viability of each group was compared to the control.

[6] = test system: EO771 cells; experiment: Cell viability, LDH assay; conditions: emodin 0-100 μM, 24-48 h
Description: as §3

With `Cc1cc(O)c2c(c1)C(=O)c1cc(O)cc(O)c1C2=O` [emodin] the STAT6 nuclear translocation ([1]; IL4 stimulation) was “drastically inhibit”, the “nuclear IRF4” value ([1]; IL4 stimulation) was “inhibited” and the “NFκB p65 nuclear translocation” value ([1]; LPS/IFNγ stimulation) was “drastically inhibit”. For the same molecule, the “STAT1 and IRF5 nuclear translocation” value ([1]; LPS/IFNγ stimulation) was “inhibited”, the IRF4 protein production [2] was “dose dependently inhibited” and the “expression of MCP1, CSF1, and CSF2” value [3] was “significantly inhibited”. For the same molecule, the “tumor cell expression of Thy1” value [3] was “significantly inhibited”, the “expression of MCP1, CSF1, and CSF2” value [4] was “significantly inhibited” and the “tumor cell expression of Thy1” value [4] was “significantly inhibited”. The “concentration from which a slight effect on cell viability starts” value [5] was at least 25 µM and the “concentration from which a slight effect on cell viability starts” value [6] was at least 25 µM.
